For data set [1], the system named is HCT116. Further details: method as in Wang et al. [2020]. The following applies: ref Wang et al. [2020]; cited from earlier work.
For data set [2], the system named is RKO. Further details: method as in Wang et al. [2020]. As to conditions: ref Wang et al. [2020]; cited from earlier work.
Data set [3] has as its target SH2 domain of STAT3. The following applies: cited from earlier work.
Data set [4] deals with T1, STAT3 (Homo sapiens, UniProt P40763).
T1 construct: sections prepared from the excised tumors of A549 tumor-bearing mice at 30 min postinjection of [^18F]FBNAF; from tissue; host or cells: A549 (human lung cancer) xenograft tumour excised from tumour-bearing mice
Kind of data set: Ex vivo autoradiography and immunohistochemistry. The data set is classed as in vivo, mouse. The following applies: tumor sections, 30 min postinjection, A549 tumor-bearing mice. The protocol: Tumors were excised 30 min after the intravenous injection of [^18F]FBNAF (3–6 MBq, 100 μL) and immediately frozen in OCT compound. The frozen tumor was cut into 10 µm thick sections using Cryotome and contacted with a phosphor screen in a cassette overnight. The screen was scanned using an Amersham Typhoon scanner (Cytiva), and the resulting images were analyzed using Image-Quant TL (Cytiva).
For immunohistochemistry, adjacent sections were fixed with cold acetone (− 20℃) for 10 min. After blocking using Blocking One Histo (Nacalai Tesque), the sections were incubated with antibodies against STAT3 (1:200 dilution, #4904) or pSTAT3(Tyr705) (1:200 dilution, #9145) overnight at 4℃. After a rinse, anti-rabbit IgG(H + L) CF555 (1:1000 dilution, SAB4600068, Sigma-Aldrich, St. Louis, MO, USA) was added, followed by incubation for 30 min at room temperature. Nuclear staining was performed by incubation with Hoechst 33,342 (Nacalai Tesque) for 10 min.

Data set [5] concerns A549 tumor-bearing mice. The data set is described as follows: In vivo biodistribution. Also on record: species or system BALB/c nude mice. How it is done:
(§1) BALB/c nude mice (male, 4 weeks old) and ddY mice (male, 6 weeks old) were purchased from Japan SLC (Shizuoka, Japan) and given free access to food and water. All animal experiments were conducted according to Osaka Medical and Pharmaceutical University guidelines, and the study protocol was approved by the Institutional Experimental Animal Committee (Permission Number: 22-76, AP23-004). To prepare tumor-bearing mice, A549 cells (4 × 10^6 cells/mouse) suspended in culture medium (100 μL) were implanted subcutaneously into the right hind leg of each mouse. Animals with a tumor size of approximately 100 mm^3 (length × width^2 × 1/2) after inoculation with A549 cells were used for in vivo and ex vivo experiments.
(§2) [^18F]FBNAF (115-343 kBq, 100 μL) in 5% DMSO/PBS (−) was intravenously injected into mice. The animals were euthanized under isoflurane anesthesia at 10, 30, 60, and 120 min postinjection, and the tissues of interest were excised and weighed. Radioactivity was measured using a γ-counter. The accumulation of radioactivity was expressed as the percent injected dose per gram tissue (%ID/g) for all tissues excluding the stomach, in which accumulation was expressed as the percent injected dose per organ (%ID). For the blocking study, [^18F]FBNAF (115-360 kBq, 100 μL) in 5% DMSO/PBS (−) was intravenously coinjected with BP-1-102 (3.0 mg/kg, Selleck, Shanghai, China) into mice, and after 30 min, the accumulated radioactivity in the tumor, blood, and muscle were measured. Radioactivity was decay-corrected at the time of administration.

A short description of data set [6]: In vitro stability in mouse plasma. The following applies: 3 h incubation in mouse plasma, 37℃, normal-phase TLC. Format: in vitro ADME, ddY mouse. The protocol: [^18F]FBNAF (152 kBq, 20 μL) in 5% DMSO/PBS ( −) was incubated with ddY mouse plasma (180 μL) at 37℃ for 10, 60, 120, or 180 min. After protein removal using CH3CN (400 μL), the supernatant was filtered through a Cosmonice Filter W and analyzed by TLC (Rf = 0.4, ethyl acetate:hexane = 1:1), followed by radioactivity counting using a γ-counter (2480 Wizard^2, PerkinElmer Japan, Kanagawa, Japan; n = 3). The intact rate (%) was represented as the intact form relative to the total radioactivity.

The subject of data set [7] is A549 tumor-bearing mice. The data set is described as follows: In vivo blocking study with coinjected BP-1-102. Further details: species or system BALB/c nude mice. How it is done:
as §1, §2

In data set [8] the test system is A549 tumor-bearing mice. Further details: method as in Zhang et al. [2012]. As to conditions: repeated intravenous administration, ref Zhang et al. [2012]; cited from earlier work.
Data set [9] concerns STAT3 phosphorylation (Tyr705) in A549 cells. Kind of data set: Phosphorylation inhibitory assay (western blotting). The data set is classed as cell-based, Human. The following applies: 24 h. The protocol:
Several concentrations of FBNAF (final conc. 0, 0.2, 0.5 1.0, and 2.0 μM in medium containing 1% DMSO) were added to A549 cells, followed by incubation at 37℃ for 24 h. After harvesting, cells were lysed with Passive Lysis Buffer (Promega, Madison, WI, USA) containing 1% protease inhibitor and 1% phosphatase inhibitor. Cell protein was quantified using a Pierce BCA Protein Assay Kit (Thermo Scientific, Waltham, MA, USA). The samples (15 μg/lane) were loaded and separated on an sodium dodecyl sulfate (SDS) polyacrylamide gel. Western blotting was performed using primary antibodies against STAT3 (1:2000 dilution, #4904, Cell Signaling Technology, Danvers, MA, USA), pSTAT3(Tyr705) (1:2000 dilution, #9145, Cell Signaling Technology), and β-actin (1:5000 dilution, NB600-503, Novus Biologicals, Centennial, CO, USA), as well as anti-rabbit IgG HRP-conjugated antibody (1:3000 dilution, HAF008, R&D Systems, Minneapolis, MN, USA) as a secondary antibody. The western blot bands were detected using Chemi-Lumi One L (Nacalai Tesque) and analyzed using an Amersham imager 600 (Cytiva, Tokyo, Japan). To detect pSTAT3, Chemi-Lumi One Ultra (Nacalai Tesque) was used.
(In general: In western blotting, separated proteins are transferred to a membrane and probed.)

Where [10] appears, read: blocking group, coinjection of BP-1-102 3.0 mg/kg, 30 min.
Setting [11] is: control group without BP-1-102, 30 min.

Values joined by “and” are separate entries in the source; they are usually repeats but may differ in a detail not shown here. Equal values may be shown once. Read-outs that look alike come from different tables or passages of the source.

T1 sequence (P40763 whole entry): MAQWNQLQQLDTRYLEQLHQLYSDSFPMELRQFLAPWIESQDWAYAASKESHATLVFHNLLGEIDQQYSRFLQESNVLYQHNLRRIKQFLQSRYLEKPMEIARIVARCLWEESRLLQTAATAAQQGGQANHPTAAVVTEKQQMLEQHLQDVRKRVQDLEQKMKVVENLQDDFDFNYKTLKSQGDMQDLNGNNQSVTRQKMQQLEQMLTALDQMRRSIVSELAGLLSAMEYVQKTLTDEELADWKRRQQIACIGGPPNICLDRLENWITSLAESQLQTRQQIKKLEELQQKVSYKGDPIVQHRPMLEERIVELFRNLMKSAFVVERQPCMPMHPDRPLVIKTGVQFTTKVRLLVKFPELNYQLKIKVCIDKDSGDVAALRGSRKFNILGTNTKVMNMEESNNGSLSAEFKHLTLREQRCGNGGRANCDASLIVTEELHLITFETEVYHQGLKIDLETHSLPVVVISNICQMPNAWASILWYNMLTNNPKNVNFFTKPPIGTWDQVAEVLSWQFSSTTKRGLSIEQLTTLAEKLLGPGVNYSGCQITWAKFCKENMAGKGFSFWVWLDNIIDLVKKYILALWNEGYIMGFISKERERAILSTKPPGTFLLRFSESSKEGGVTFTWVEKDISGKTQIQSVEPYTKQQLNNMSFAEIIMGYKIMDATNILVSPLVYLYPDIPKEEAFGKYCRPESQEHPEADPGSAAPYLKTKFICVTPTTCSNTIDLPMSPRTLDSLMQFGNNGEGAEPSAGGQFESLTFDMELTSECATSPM

In the case of `Cc1ccc(COc2ccc3c(c2)C(=O)C(=O)C2=C3OC(C)C2)cc1` (stereo not shown) [LYW-6], the concentration for half-maximal inhibition (IC50) (in general, the concentration at which inhibition is half-maximal) in data set [1] is 4.1 µM; in data set [2], 3.8 µM. In addition, the Kd (commonly the free concentration of one partner at which half of the binding sites on the other are occupied at equilibrium, for simple one-to-one binding) in data set [3] (ref Wang et al. [2020]) was 6.6 µM.
Turning to `CC1CC2=C(O1)c1ccc(OCc3ccc([18F])cc3)cc1C(=O)C2=O` (stereo not shown) [[^18F]FBNAF, 7-(4-[^18F]Fluoro-benzyloxy)-2-methyl-2,3-dihydro-naphtho[1,2-b]furan-4,5-dione], the “intratumoral radioactivity distribution versus STAT3 expression” value in data set [4] was “almost corresponded to the STAT3 expression profile”. Also, in data set [5] (10 min after i.v. injection), the Blood radioactivity is listed as 1.0 ± 0.2 %ID/g, the Bone radioactivity is listed as 2.1 ± 0.2 %ID/g, the Brain radioactivity was determined as 1.9 ± 1.1 %ID/g and the Colon radioactivity is 0.8 ± 0.4 %ID/g. In [5] (10 min after i.v. injection), the Heart radioactivity was 2.3 ± 0.8 %ID/g, the Kidney radioactivity came to 19.5 ± 7.7 %ID/g, the Liver radioactivity is reported as 10.8 ± 2.8 %ID/g and the Lung radioactivity is 4.4 ± 1.0 %ID/g. Moreover, in data set [5] (10 min after i.v. injection), the Muscle radioactivity is 2.1 ± 0.8 %ID/g, the Pancreas radioactivity was found to be 6.3 ± 2.9 %ID/g, the Small intestine radioactivity was determined as 11.6 ± 5.5 %ID/g and the Spleen radioactivity stood at 2.7 ± 0.7 %ID/g. For the same compound, in data set [5] (10 min after i.v. injection), the Stomach radioactivity was found to be 0.6 ± 0.3 %ID, the Tumor radioactivity is 1.5 ± 0.3 %ID/g, the Tumor/blood ratio turned out to be 1.6 ± 0.3 and the Tumor/muscle ratio was found to be 0.8 ± 0.1. Besides, in data set [5] (30 min after i.v. injection), the Blood radioactivity is 1.0 ± 0.3 %ID/g, the Bone radioactivity is recorded as 2.3 ± 0.6 %ID/g, the Brain radioactivity was found to be 0.8 ± 0.1 %ID/g and the Colon radioactivity came out at 0.7 ± 0.4 %ID/g. Also, in data set [5] (30 min after i.v. injection), the Heart radioactivity came out at 1.5 ± 0.7 %ID/g, the Kidney radioactivity was found to be 4.5 ± 1.2 %ID/g, the Liver radioactivity amounted to 5.3 ± 1.9 %ID/g and the Lung radioactivity was determined as 3.3 ± 2.0 %ID/g. Further, in data set [5] (30 min after i.v. injection), the Muscle radioactivity amounted to 0.6 ± 0.1 %ID/g, the Pancreas radioactivity turned out to be 1.1 ± 0.3 %ID/g, the Small intestine radioactivity was 38.3 ± 5.7 %ID/g and the Spleen radioactivity came to 1.6 ± 0.5 %ID/g. For the same compound, in data set [5] (30 min after i.v. injection), the Stomach radioactivity is 3.6 ± 2.8 %ID, the Tumor radioactivity is listed as 1.7 ± 0.4 %ID/g and the Tumor/blood ratio is given as 2.0 ± 1.0. Also, in data set [5] (60 min after i.v. injection), the Blood radioactivity amounted to 0.5 ± 0.1 %ID/g, the Bone radioactivity was determined as 1.5 ± 0.5 %ID/g, the Brain radioactivity is 0.5 ± 0.0 %ID/g and the Colon radioactivity is on record as 11.0 ± 3.5 %ID/g. In [5] (60 min after i.v. injection), the Heart radioactivity amounted to 0.7 ± 0.1 %ID/g, the Kidney radioactivity turned out to be 0.9 ± 0.3 %ID/g, the Liver radioactivity stood at 2.2 ± 0.3 %ID/g and the Lung radioactivity was found to be 1.2 ± 0.0 %ID/g. For the same compound, in [5] (60 min after i.v. injection), the Muscle radioactivity was found to be 0.5 ± 0.2 %ID/g, the Pancreas radioactivity is recorded as 0.5 ± 0.1 %ID/g, the Small intestine radioactivity is recorded as 48.4 ± 7.4 %ID/g and the Spleen radioactivity turned out to be 0.9 ± 0.1 %ID/g. In addition, in data set [5] (60 min after i.v. injection), the Stomach radioactivity is 1.4 ± 1.4 %ID, the Tumor radioactivity was determined as 0.9 ± 0.3 %ID/g, the Tumor/blood ratio worked out at 2.0 ± 0.8 and the Tumor/muscle ratio is on record as 2.4 ± 1.2. In data set [5] (120 min after i.v. injection), the Blood radioactivity is recorded as 0.3 ± 0.0 %ID/g, the Bone radioactivity amounted to 1.9 ± 0.2 %ID/g, the Brain radioactivity was 0.4 ± 0.1 %ID/g and the Colon radioactivity was determined as 44.4 ± 16.3 %ID/g. In data set [5] (120 min after i.v. injection), the Heart radioactivity is recorded as 0.7 ± 0.2 %ID/g, the Kidney radioactivity is given as 0.5 ± 0.2 %ID/g, the Liver radioactivity is on record as 1.6 ± 0.8 %ID/g and the Lung radioactivity was found to be 1.0 ± 0.3 %ID/g. In addition, in [5] (120 min after i.v. injection), the Muscle radioactivity is recorded as 0.5 ± 0.1 %ID/g, the Pancreas radioactivity was 0.6 ± 0.1 %ID/g, the Small intestine radioactivity turned out to be 17.8 ± 2.2 %ID/g and the Spleen radioactivity worked out at 0.8 ± 0.3 %ID/g. In [5] (120 min after i.v. injection), the Stomach radioactivity came out at 0.8 ± 1.0 %ID; the Tumor radioactivity is listed as 0.9 ± 0.3 %ID/g; the Tumor/blood ratio is 2.6 and 2.6 ± 0.8; the Tumor/muscle ratio was determined as 1.9 ± 0.9. In addition, the “radioactivity in an intact form (intact rate)” value in [6] is reported as “more than 85%”. Besides, in [7] (setting [10]), the tumor-to-blood ratio stood at 1.1 ± 0.3 and the tumor-to-muscle ratio came out at 2.3 ± 1.2. The Tumor radioactivity in [7] (blocking group, coinjection of BP-1-102 3.0 mg/kg, 30 min after administration) worked out at 1.0 ± 0.3 % ID/g. Moreover, in data set [7] (coinjection of BP-1-102 3.0 mg/kg, 30 min), the “radioactivity in blood and muscle, effect of coinjection of the inhibitor” value is reported as “negligibly affected”. In addition, in [7] (setting [11]), the tumor-to-blood ratio is 2.0 ± 1.0 and the tumor-to-muscle ratio amounted to 2.6 ± 0.3.
Consider `CN(CC(=O)N(Cc1ccc(C2CCCCC2)cc1)c1ccc(C(=O)O)c(O)c1)S(=O)(=O)c1c(F)c(F)c(F)c(F)c1F` [BP-1–102], for which, in data set [8], the “effect on tumor growth” value was “inhibited tumor growth”. Also, in [3] (ref Zhang et al. [2012]), the dissociation constant Kd is 0.504 µM.
As to `CC1CC2=C(O1)c1ccc(OCc3ccc(F)cc3)cc1C(=O)C2=O` (stereo not shown) [FBNAF, 7-(4-Fluoro-benzyloxy)-2-methyl-2,3-dihydro-naphtho[1,2-b]furan-4,5-dione], in data set [9] (0–2 μM), the “change in total STAT3 expression” value is given as “no significant change”. Further, the “inhibition of pSTAT3 expression” value in data set [9] (0.5 μM) was 50%; in data set [9] (1.0 μM) it was 60%.

The values are drawn from article PMC11150212, “Synthesis and evaluation of [^18F]FBNAF, a STAT3-targeting probe, for PET imaging of tumor microenvironment” (EJNMMI Radiopharmacy and Chemistry, 2024).
